Experimental data as given in patent US11771662B2, “Analgesic formulation for control of pain in dogs” (Kansas State University Research Foundation, priority 2017, dated 2023).

What was measured:
[1] = system: dogs undergoing ovariohysterectomy; assay: Sedation scores at each time point in ovariohysterectomy clinical trial (Example IV); conditions: 0.5 mg/kg SC q 4 h
[2] = Plasma methadone concentrations by liquid chromatography/triple quadrupole mass spectrometry (Example I); conditions: dog, in vivo
[3] = 1 mg/kg, Mean plasma methadone concentration, methadone alone 1 mg/kg PO, 6 dogs
[4] = 1 mg/kg, Plasma methadone concentration, individual dogs, methadone alone 1 mg/kg PO, Dog 1-6
[5] = Mean plasma methadone concentration, methadone 1 mg/kg PO 24 h after starting fluconazole 2.5 mg/kg PO q 12 h

Structure (SMILES): CCC(=O)C(CC(C)N(C)C)(c1ccccc1)c1ccccc1 (racemic) [methadone]
- Sedation Score Moderate (number of dogs) ([1]; Day 0 5:00 PM): 0
- Sedation Score None (number of dogs) ([1]; Day 0 5:00 PM): 13
- Sedation Score Profound (number of dogs) ([1]; Day 0 5:00 PM): 0
- Sedation Score Slight (number of dogs) ([1]; Day 0 5:00 PM): 0
- Sedation Score Moderate (number of dogs) ([1]; Day 1 1:00 PM): 3
- Sedation Score None (number of dogs) ([1]; Day 1 1:00 PM): 1
- Sedation Score Profound (number of dogs) ([1]; Day 1 1:00 PM): 3
- Sedation Score Slight (number of dogs) ([1]; Day 1 1:00 PM): 6
- Sedation Score Moderate (number of dogs) ([1]; Day 1 4:00 PM): 0
- Sedation Score None (number of dogs) ([1]; Day 1 4:00 PM): 5
- Sedation Score Profound (number of dogs) ([1]; Day 1 4:00 PM): 0
- Sedation Score Slight (number of dogs) ([1]; Day 1 4:00 PM): 8
- Sedation Score Moderate (number of dogs) ([1]; Day 1 6:00 PM): 1
- Sedation Score None (number of dogs) ([1]; Day 1 6:00 PM): 4
- Sedation Score Profound (number of dogs) ([1]; Day 1 6:00 PM): 0
- Sedation Score Slight (number of dogs) ([1]; Day 1 6:00 PM): 8
- Sedation Score Moderate (number of dogs) ([1]; Day 1 8:00 PM): 0
- Sedation Score None (number of dogs) ([1]; Day 1 8:00 PM): 9
- Sedation Score Profound (number of dogs) ([1]; Day 1 8:00 PM): 0
- Sedation Score Slight (number of dogs) ([1]; Day 1 8:00 PM): 6
- Sedation Score Moderate (number of dogs) ([1]; Day 1 12:00 PM): 1
- Sedation Score None (number of dogs) ([1]; Day 1 12:00 PM): 2
- Sedation Score Profound (number of dogs) ([1]; Day 1 12:00 PM): 0
- Sedation Score Slight (number of dogs) ([1]; Day 1 12:00 PM): 10
- Sedation Score Moderate (number of dogs) ([1]; Day 2 5:00 PM): 0
- Sedation Score None (number of dogs) ([1]; Day 2 5:00 PM): 13
- Sedation Score Profound (number of dogs) ([1]; Day 2 5:00 PM): 0
- Sedation Score Slight (number of dogs) ([1]; Day 2 5:00 PM): 0
- Sedation Score Moderate (number of dogs) ([1]; Day 2 6:30 AM): 0
- Sedation Score None (number of dogs) ([1]; Day 2 6:30 AM): 13
- Sedation Score Profound (number of dogs) ([1]; Day 2 6:30 AM): 0
- Sedation Score Slight (number of dogs) ([1]; Day 2 6:30 AM): 0
- Sedation Score Moderate (number of dogs) ([1]; Day 3 7:00 AM): 0
- Sedation Score None (number of dogs) ([1]; Day 3 7:00 AM): 13
- Sedation Score Profound (number of dogs) ([1]; Day 3 7:00 AM): 0
- Sedation Score Slight (number of dogs) ([1]; Day 3 7:00 AM): 0
- concentration at 0.333 h [2, 3]: 0.8 ng/mL
- concentration at 0.667 h [2, 3]: 1.3 ng/mL
- concentration at 1 h [2, 3]: 1.2 ng/mL
- concentration at 2 h [2, 3]: 0.7 ng/mL
- concentration at 4 h [2, 3]: 0.4 ng/mL
- concentration at 0 h [2, 4]: < 0.5 ng/mL
- concentration at 1 h [2, 4]: 1 ng/mL
- concentration at 4 h [2, 4]: < 0.5 ng/mL
- concentration at 6 h [2, 4]: < 0.5 ng/mL
- concentration at 8 h [2, 4]: < 0.5 ng/mL
- concentration at 12 h [2, 4]: < 0.5 ng/mL
- concentration at 24 h ([2]; 1 mg/kg, Plasma methadone concentration, individual dogs, methadone alone 1 mg/kg PO, 24 hr, Dog 1-6): < 0.5 ng/mL
- concentration at 0 h [2, 5]: 0 ng/mL
- concentration at 0.333 h [2, 5]: 0.8 ng/mL
- concentration at 0.667 h [2, 5]: 5.2 ng/mL
- concentration at 1 h [2, 5]: 16 ng/mL
- concentration at 2 h [2, 5]: 28.4 ng/mL
- concentration at 4 h [2, 5]: 23.3 ng/mL
- concentration at 6 h [2, 5]: 19.2 ng/mL
- concentration at 8 h [2, 5]: 15.9 ng/mL
- concentration at 12 h [2, 5]: 11.6 ng/mL
